Common to all, as to format: cell-based
Assay [1] concerns PI3Kα H1047R mutation cell line MDA-MB-453. In words: Cell Proliferation IC50 Assay (CellTiter-Glo), MDA-MB-453. To be noted: read-out: IC50 (μM) MDA-MB-453. Put shortly:
(§1)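 Cells were seeded and left overnight, then exposed to serially diluted compound (200-fold final dilution) for 72 h at 37 °C, 5% CO2. Viability was read by CellTiter-Glo luminescence. Percent inhibition and IC50 were calculated from the signal.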
(In general: In ATP-based viability assays light output follows the ATP content of the culture.)

The subject of assay [2] is PI3Kα wide type cell line SK-BR-3. In words: Cell Proliferation IC50 Assay (CellTiter-Glo), SK-BR-3. Particulars: SK-BR-3 (PI3Kα wild type), 72 hours, CellTiter-Glo, read-out: IC50 (μM) SK-BR-3. Put shortly: as §1
The next assay has as its target PI3Kα WT (Homo sapiens, UniProt P42336). In words: pAKT (S473) ELISA assay in WT cell line (SK-BR-3). To be noted: SK-BR-3 cells, two hours compound, IGF-1 50 ng/ml stimulation. How it is done: (§2) Cells were serum starved for 4 hours prior to compound treatment; compound solution was added to each well (3-fold serial dilution starting at desired concentration) for two hours in serum-free medium, followed by stimulation with IGF-1 for 60 minutes at a final concentration of 50 ng/ml as noted. After compound treatment and stimulation, discarded the supernatant and cells were lysed by cell lysis buffer (Cell Signaling Technology, #9803S). The lysate was transferred to the ELISA plate, the Phospho-AKT (Ser473) ELISA was performed as the manufacturer's directions (Cell Signaling Technology, #7160CA).
For orientation: ELISA stands for enzyme-linked immunosorbent assay.

The next assay has as its target PI3Kα H1047R mutant (Homo sapiens, UniProt P42336, H1047R). In words: pAKT (S473) ELISA assay in PI3Kα H1047R mutant cell line (T47D). To be noted: T47D cells, two hours compound, IGF-1 50 ng/ml stimulation. On the procedure:
as §2

The subject of assay [3] is PI3Kα H1047R mutation cell line T-47D. In words: Cell Proliferation IC50 Assay (CellTiter-Glo), T-47D. To be noted: T47D (H1047R), 72 hours, CellTiter-Glo, read-out: IC50 (μM) T47D. Put shortly: as §1
For a further assay, the target named is T1, PI3Kβ (Homo sapiens, UniProt P42338).
T1 construct: endogenous in cells; host or cells: 786-O
T1 sequence (P42338 whole entry): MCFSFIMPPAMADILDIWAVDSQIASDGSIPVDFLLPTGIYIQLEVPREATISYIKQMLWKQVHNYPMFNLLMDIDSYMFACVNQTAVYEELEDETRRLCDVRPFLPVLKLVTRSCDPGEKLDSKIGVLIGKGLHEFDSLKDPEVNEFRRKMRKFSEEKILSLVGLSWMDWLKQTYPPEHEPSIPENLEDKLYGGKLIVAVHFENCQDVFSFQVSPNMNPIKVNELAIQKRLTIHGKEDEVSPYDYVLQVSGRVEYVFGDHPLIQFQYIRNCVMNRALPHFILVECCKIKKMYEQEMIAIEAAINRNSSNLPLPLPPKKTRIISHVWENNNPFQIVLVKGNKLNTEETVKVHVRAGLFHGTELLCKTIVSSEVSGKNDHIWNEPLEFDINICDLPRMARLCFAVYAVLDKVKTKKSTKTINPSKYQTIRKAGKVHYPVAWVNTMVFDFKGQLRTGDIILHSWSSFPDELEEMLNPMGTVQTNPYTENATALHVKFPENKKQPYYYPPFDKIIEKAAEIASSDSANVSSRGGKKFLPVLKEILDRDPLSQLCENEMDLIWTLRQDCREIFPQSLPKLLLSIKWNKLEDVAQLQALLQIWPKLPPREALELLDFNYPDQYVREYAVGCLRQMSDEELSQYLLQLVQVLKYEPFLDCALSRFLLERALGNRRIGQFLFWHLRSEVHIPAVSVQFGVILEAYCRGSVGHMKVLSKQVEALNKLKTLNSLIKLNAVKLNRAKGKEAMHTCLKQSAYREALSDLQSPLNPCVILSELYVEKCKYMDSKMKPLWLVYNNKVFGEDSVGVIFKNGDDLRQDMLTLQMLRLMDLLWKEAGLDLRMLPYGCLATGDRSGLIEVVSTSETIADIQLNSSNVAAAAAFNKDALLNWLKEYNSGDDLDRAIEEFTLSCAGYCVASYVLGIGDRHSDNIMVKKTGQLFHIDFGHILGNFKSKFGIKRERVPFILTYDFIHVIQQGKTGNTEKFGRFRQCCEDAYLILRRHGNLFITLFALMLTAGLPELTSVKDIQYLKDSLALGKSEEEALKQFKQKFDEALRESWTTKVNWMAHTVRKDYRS
T1 sequence (P27986 whole entry partner): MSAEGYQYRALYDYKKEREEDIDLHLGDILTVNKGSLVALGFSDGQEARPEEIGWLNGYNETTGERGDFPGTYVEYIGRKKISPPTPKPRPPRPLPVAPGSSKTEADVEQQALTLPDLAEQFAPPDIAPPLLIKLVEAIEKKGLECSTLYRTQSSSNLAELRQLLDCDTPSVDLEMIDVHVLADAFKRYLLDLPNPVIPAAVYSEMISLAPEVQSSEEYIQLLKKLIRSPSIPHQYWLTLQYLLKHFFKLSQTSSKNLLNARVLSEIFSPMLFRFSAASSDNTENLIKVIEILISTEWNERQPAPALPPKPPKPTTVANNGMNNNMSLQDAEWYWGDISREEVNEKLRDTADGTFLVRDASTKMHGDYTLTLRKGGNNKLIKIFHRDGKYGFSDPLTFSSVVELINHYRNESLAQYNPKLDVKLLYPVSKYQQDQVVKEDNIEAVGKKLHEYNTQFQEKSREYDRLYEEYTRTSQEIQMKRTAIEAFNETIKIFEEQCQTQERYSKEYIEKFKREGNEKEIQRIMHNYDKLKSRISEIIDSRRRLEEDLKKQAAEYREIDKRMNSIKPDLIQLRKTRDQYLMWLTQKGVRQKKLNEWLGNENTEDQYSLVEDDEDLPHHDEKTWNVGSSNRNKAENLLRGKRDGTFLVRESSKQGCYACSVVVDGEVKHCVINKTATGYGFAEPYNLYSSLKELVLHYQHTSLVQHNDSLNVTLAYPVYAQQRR
In words: Selectivity study, p-AKT (Ser473) HTRF assay in 786-O cells. Particulars: 786-O cell, 1 hour incubation, serum-free medium. How it is done:
The following day, the complete medium was replaced with serum-free medium, 3-fold serial diluted compound solution in serum-free medium was added to each well according to the plate map. After 1 hour incubation, removed cell supernatant carefully and added supplemented lysis buffer (1×) for 45 min. The lysate was transferred to a 384-well small volume white plate, the CisBio Phospho-AKT (Ser473) HTRF assay was performed as the manufacturer's directions (Cisbio, #64AKSPEG).

The mark [4] stands for this setting: MDA-MB-453 (H1047R), 72 hours, CellTiter-Glo.
Where [5] appears, read: Homo sapiens, MDA-MB-453 (H1047R), 72 hours, CellTiter-Glo.

Read-outs that look alike come from different tables or passages of the source. Where only a bound is given, the exact number is not on record here.

What is called IC50 is the concentration that inhibits the measured activity by half.

PI3Kα H1047R mutant, sequence (P42336 whole entry H1047R): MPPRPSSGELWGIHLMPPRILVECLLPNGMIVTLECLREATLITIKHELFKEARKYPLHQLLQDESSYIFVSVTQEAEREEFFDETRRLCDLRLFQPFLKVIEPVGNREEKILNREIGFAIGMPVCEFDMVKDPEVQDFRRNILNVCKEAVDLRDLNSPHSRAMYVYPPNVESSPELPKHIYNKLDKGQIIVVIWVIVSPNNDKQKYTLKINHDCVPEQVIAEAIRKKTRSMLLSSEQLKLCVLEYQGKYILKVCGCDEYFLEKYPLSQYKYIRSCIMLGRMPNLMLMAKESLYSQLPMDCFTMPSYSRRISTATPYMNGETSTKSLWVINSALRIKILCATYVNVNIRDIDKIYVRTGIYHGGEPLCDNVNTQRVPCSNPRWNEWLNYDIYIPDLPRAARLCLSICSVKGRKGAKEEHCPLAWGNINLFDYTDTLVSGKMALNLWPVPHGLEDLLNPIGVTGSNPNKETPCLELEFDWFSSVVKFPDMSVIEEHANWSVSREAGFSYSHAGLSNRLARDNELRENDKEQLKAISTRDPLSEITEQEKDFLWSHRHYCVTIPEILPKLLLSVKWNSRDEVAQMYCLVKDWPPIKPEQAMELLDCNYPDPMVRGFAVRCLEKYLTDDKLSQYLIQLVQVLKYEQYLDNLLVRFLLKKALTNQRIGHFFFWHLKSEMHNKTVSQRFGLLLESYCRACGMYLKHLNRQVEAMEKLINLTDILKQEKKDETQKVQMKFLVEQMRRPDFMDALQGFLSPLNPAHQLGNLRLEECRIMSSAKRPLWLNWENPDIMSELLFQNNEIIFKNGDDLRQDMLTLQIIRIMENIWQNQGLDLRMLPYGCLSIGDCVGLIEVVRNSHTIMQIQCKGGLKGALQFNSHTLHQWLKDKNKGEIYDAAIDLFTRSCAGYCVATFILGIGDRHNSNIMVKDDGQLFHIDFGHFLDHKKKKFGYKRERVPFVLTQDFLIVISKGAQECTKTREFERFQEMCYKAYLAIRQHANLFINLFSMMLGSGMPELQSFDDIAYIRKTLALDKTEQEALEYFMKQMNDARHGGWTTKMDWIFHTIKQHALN
PI3Kα H1047R mutant, sequence (P27986 whole entry partner): as the sequence (P27986 whole entry partner) above
PI3Kα WT, sequence (P42336 whole entry): as the sequence (P42336 whole entry H1047R) above, with R1047H counted along it
PI3Kα WT, sequence (P27986 whole entry partner): as the sequence (P27986 whole entry partner) above

Consider `C[C@@H](Nc1ccccc1C(=O)O)c1cc(Cl)cc2c(=O)cc(-c3ccc4nn(C)cc4c3)oc12` (single isomer, unassigned) [Example 98B], for which the half-inhibitory concentration (IC50) was greater than 10 µM in assay [1] (setting [4]); greater than 10 µM in assay [2]; 1340 nM against PI3Kα WT; 19.5 nM on PI3Kα H1047R mutant; greater than 10 µM in assay [3].

On to `CC(=O)N1CCC(c2cc(=O)c3cc(C)cc(C(C)Nc4ccccc4C(=O)O)c3o2)CC1` (stereo not drawn) [Example 28, 2-((1-(2-(1-acetylpiperidin-4-yl)-6-methyl-4-oxo-4H-chromen-8-yl)ethyl)amino)benzoic acid], for which the IC50 in assay [1] (setting [5]) is 3.61 µM; in assay [2] (Homo sapiens), greater than 10 µM; in assay [3] (Homo sapiens, T47D, 72 h), 1.77 µM.

Turning to `Cc1cc(C(C)Nc2ccccc2C(=O)O)c2oc(C3CCN(C(=O)C(F)(F)F)CC3)cc(=O)c2c1` (stereo not drawn) [Example 29, 2-((1-(6-methyl-4-oxo-2-(1-(2,2,2-trifluoroacetyl)piperidin-4-yl)-4H-chromen-8-yl)ethyl)amino)benzoic acid], the IC50 in assay [1] (setting [5]) was greater than 10 µM; in assay [2] (Homo sapiens), greater than 10 µM; in assay [3] (Homo sapiens, T47D, 72 h), 4.13 µM.

For `Cc1cc(C(C)Nc2ccccc2C(=O)O)c2oc(C3CCN(C(=O)C4CC4)CC3)cc(=O)c2c1` (stereo not drawn) [Example 30, 2-((1-(2-(1-(cyclopropanecarbonyl)piperidin-4-yl)-6-methyl-4-oxo-4H-chromen-8-yl)ethyl)amino)benzoic acid], the IC50 was 4 µM in assay [1] (setting [5]); greater than 10 µM in assay [2] (Homo sapiens); 1.87 µM in assay [3] (Homo sapiens, T47D, 72 h).

On to `Cc1cc(C(C)Nc2ccccc2C(=O)O)c2oc(-c3cccnc3)cc(=O)c2c1` (stereo not drawn) [Example 32, 2-((1-(6-methyl-4-oxo-2-(pyridin-3-yl)-4H-chromen-8-yl)ethyl)amino)benzoic acid], for which the IC50 in assay [1] (setting [5]) was 1.38 µM; in assay [2] (Homo sapiens), greater than 10 µM; in assay [3] (Homo sapiens, T47D, 72 h), 0.75 µM.

For the compound `Cc1cc(C(C)Nc2ccccc2C(=O)O)c2oc(-c3ccncc3)cc(=O)c2c1` (stereo not drawn) [Example 33, 2-((1-(6-methyl-4-oxo-2-(pyridin-4-yl)-4H-chromen-8-yl)ethyl)amino)benzoic acid], the IC50 in assay [1] (setting [5]) is 0.42 µM; in assay [2] (Homo sapiens), greater than 10 µM; in assay [3] (Homo sapiens, T47D, 72 h), 0.32 µM.

As to `Cc1cc(C(C)Nc2ccccc2C(=O)O)c2oc(-c3ccn(C)c(=O)c3)cc(=O)c2c1` (stereo not drawn) [Example 34, 2-((1-(6-methyl-2-(1-methyl-2-oxo-1,2-dihydropyridin-4-yl)-4-oxo-4H-chromen-8-yl)ethyl)amino)benzoic acid], the IC50 in assay [1] (setting [5]) is 7.82 µM; in assay [2] (Homo sapiens) it was greater than 10 µM; in assay [3] (Homo sapiens, T47D, 72 h) it was 4.63 µM.

On to `Cc1cc(C(C)Nc2ccccc2C(=O)O)c2oc(-c3ccc4ncccc4c3)cc(=O)c2c1` (stereo not drawn) [Example 35, 2-((1-(6-methyl-4-oxo-2-(quinolin-6-yl)-4H-chromen-8-yl)ethyl)amino)benzoic acid], for which the IC50 was 0.57 µM in assay [1] (setting [5]); greater than 10 µM in assay [2] (Homo sapiens); 0.5 µM in assay [3] (Homo sapiens, T47D, 72 h).

Turning to `Cc1cc(C(C)Nc2ccccc2C(=O)O)c2oc(-c3ccc4c(cnn4C)c3)cc(=O)c2c1` (stereo not drawn) [Example 37, 2-((1-(6-methyl-2-(1-methyl-1H-indazol-5-yl)-4-oxo-4H-chromen-8-yl)ethyl)amino)benzoic acid], the IC50 is 0.8 µM in assay [1] (setting [5]); greater than 10 µM in assay [2] (Homo sapiens); 0.42 µM in assay [3] (Homo sapiens, T47D, 72 h).

Consider `Cc1cc([C@H](C)Nc2ccccc2C(=O)O)c2oc(-c3ccc4nn(C)cc4c3)cc(=O)c2c1` [Example 38A, (S)-2-((1-(6-methyl-2-(2-menthyl-2H-indazol-5-yl)-4-oxo-411-chromen-8-yl)ethyl)amino)benzoic acid], for which the IC50 in assay [1] (setting [4]), in assay [2] and in assay [3] was greater than 10 µM in each case.

With `Cc1cc(C(C)Nc2ccccc2C(=O)O)c2oc(-c3ccc4nn(C)cc4c3)cc(=O)c2c1` (stereo not drawn) [Example 38], the IC50 in assay [1] (setting [5]) is 0.15 µM; in assay [2] (Homo sapiens), greater than 10 µM; in assay [3] (Homo sapiens, T47D, 72 h), 0.08 µM.

`Cc1cc(C(C)Nc2ccccc2C(=O)O)c2oc(-c3cnoc3)cc(=O)c2c1` (stereo not drawn) [Example 39, 2-((1-(2-(isoxazol-4-yl)-6-methyl-4-oxo-4H-chromen-8-yl)ethyl)amino)benzoic acid]: the IC50 is 2.49 µM in assay [1] (setting [5]); greater than 10 µM in assay [2] (Homo sapiens); 1.98 µM in assay [3] (Homo sapiens, T47D, 72 h).

Take `Cc1cc(C(C)Nc2ccccc2C(=O)O)c2oc(-c3ccc(N4CCOCC4)cc3)cc(=O)c2c1` (stereo not drawn) [Example 42, 2-((1-(6-methyl-2-(4-morpholinophenyl)-4-oxo-4H-chromen-8-yl)ethyl)amino)benzoic acid]: the IC50 is 0.2 µM in assay [1] (setting [5]); greater than 10 µM in assay [2] (Homo sapiens); 0.21 µM in assay [3] (Homo sapiens, T47D, 72 h).

With `Cc1cc([C@@H](C)Nc2ccccc2C(=O)O)c2oc(-c3ccc4nn(C)cc4c3)c(C)c(=O)c2c1` [Example 49A, (R)-2-((1-(3,6-dimethyl-2-(2-methyl-211-indazol-5-yl)-4-oxo-4H-chromen-8-yl)ethyl)amino)benzoic acid], the values for the IC50 in assay [1] (setting [4]), in assay [2] and in assay [3] were 0.09 µM, greater than 10 µM and 0.07 µM, respectively.

Take `Cc1cc(C(C)Nc2ccccc2C(=O)O)c2oc(-c3ccc(-c4cnn(C)c4)cc3)cc(=O)c2c1` (stereo not drawn) [Example 95, 2-((1-(6-methyl-2-(4-(1-methyl-1H-pyrazol-4-yl)phenyl)-4-oxo-4H-chromen-8-yl)ethyl)amino)benzoic acid]: on PI3Kβ, 1.22 µM corresponded to half-maximal inhibition (IC50).

The compound `CC(Nc1ccccc1C(=O)O)c1cc(Cl)cc2c(=O)cc(-c3ccc4nn(C)cc4c3)oc12` (stereo not drawn) [Example 98, 2-((1-(6-chloro-2-(2-methyl-2H-indazol-5-yl)-4-oxo-4H-chromen-8-yl)ethyl)amino)benzoic] yielded an IC50 against PI3Kβ of 1.15 µM.

With `Cc1cc(C(C)Nc2ccccc2C(=O)O)c2oc(-c3cc(C)c4nn(C)cc4c3)cc(=O)c2c1` (stereo not drawn) [Example 109, 2-((1-(2-(2,7-dimethyl-21-indazol-5-yl)-6-methyl-4-oxo-4H-chromen-8-yl)ethyl)amino)benzoic acid], the IC50 was 0.16 µM in assay [1] (setting [5]); greater than 10 µM in assay [2] (Homo sapiens); 0.22 µM in assay [3] (Homo sapiens, T47D, 72 h).

For `Cc1cc(C(C)Nc2ccc(Cl)nc2C(=O)O)c2oc(-c3ccc4nn(C)cc4c3)cc(=O)c2c1` (stereo not drawn) [Example 110, 6-chloro-3-((1-(6-methyl-2-(2-methyl-2-indazol-5-yl)-4-oxo-4H-chromen-8-yl)ethyl)amino)picolinic acid], the IC50 in assay [2] (Homo sapiens) is greater than 10 µM; against PI3Kβ, greater than 10 µM; in assay [3] (Homo sapiens, T47D, 72 h), 0.087 µM.

As for `Cc1cc(C(C)Nc2ccccc2S(N)(=O)=O)c2oc(-c3ccc4nn(C)cc4c3)c(C)c(=O)c2c1` (stereo not drawn) [Example 131, 2-((1-(3,6-dimethyl-2-(2-methyl-2H-indazol-5-yl)-4-oxo-4H-chromen-8-yl)ethyl)amino)benzenesulfonamide], the half-inhibitory concentration (IC50) in assay [1] (Homo sapiens, MDA-MB-453, 72 h) was 0.059 µM; in assay [2] (Homo sapiens), greater than 10 µM; in assay [3] (Homo sapiens), 0.055 µM.

Regarding `Cc1cc([C@@H](C)Nc2ccccc2C(=O)O)c2oc(-c3ccc(CN4CCN(C)C(=O)C4)cc3)c(C)c(=O)c2c1` [Example 148, (R)-2-((1-(3,6-dimethyl-2-(4-((4-methyl-3-oxopiperazin-1-yl)methyl)phenyl)-4-oxo-4H-chromen-8-yl)ethyl)amino)benzoic acid], the IC50 in assay [2] (Homo sapiens) is greater than 10 µM; against PI3Kα WT it was 4340 nM; against PI3Kβ it was greater than 10 µM; on PI3Kα H1047R mutant it was 48.5 nM; in assay [3] (Homo sapiens, T47D, 72 h), 0.066 µM.

Regarding `Cc1cc([C@@H](C)Nc2ccccc2C(=O)O)c2oc(-c3ccc(Cc4cnn(C)c4)cc3)c(C)c(=O)c2c1` [Example 151, 2-[[(1R)-1-[3,6-dimethyl-2-[4-[(1-methylpyrazol-4-yl)methyl]phenyl]-4-oxo-chromen-8-yl]ethyl]amino]benzoic acid], the IC50 in assay [1] (setting [5]) was 0.089 µM; in assay [2] (Homo sapiens), greater than 10 µM; in assay [3] (Homo sapiens, T47D, 72 h), 0.058 µM.

Take `CC(=O)N1CCN(c2ccc(-c3oc4c([C@@H](C)Nc5ccccc5C(=O)O)cc(C)cc4c(=O)c3C)cc2F)CC1` [Example 154, (R)-2-((1-(2-(4-(4-acetylpiperazin-1-yl)-3-fluorophenyl)-3,6-dimethyl-4-oxo-41H-chromen-8-yl)ethyl)amino)benzoic acid]: the IC50 in assay [1] (setting [5]) is 0.086 µM; in assay [2] (Homo sapiens) it was greater than 10 µM; in assay [3] (Homo sapiens, T47D, 72 h), 0.074 µM.

The record behind these values is patent publication US20250136568A1, “FUSED HETEROCYCLIC COMPOUNDS AS PI3KALPHA INHIBITORS” (Nanjing Zenshine Pharmaceuticals Co., Ltd., priority 2021, published 2025).
